These results are taken from ChEMBL document CHEMBL1201862, “PubChem BioAssay data set” (2004).

Active and inactive are the calls of the source.

For assay [1], the target named is T1, Sentrin-specific protease 7 (Homo sapiens, UniProt Q9BQF6).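 Also: Luminescence-based dose-response confirmation of ultra-high-throughput screening hits, measuring inhibition of SENP7.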
T1 sequence (Q9BQF6 whole entry): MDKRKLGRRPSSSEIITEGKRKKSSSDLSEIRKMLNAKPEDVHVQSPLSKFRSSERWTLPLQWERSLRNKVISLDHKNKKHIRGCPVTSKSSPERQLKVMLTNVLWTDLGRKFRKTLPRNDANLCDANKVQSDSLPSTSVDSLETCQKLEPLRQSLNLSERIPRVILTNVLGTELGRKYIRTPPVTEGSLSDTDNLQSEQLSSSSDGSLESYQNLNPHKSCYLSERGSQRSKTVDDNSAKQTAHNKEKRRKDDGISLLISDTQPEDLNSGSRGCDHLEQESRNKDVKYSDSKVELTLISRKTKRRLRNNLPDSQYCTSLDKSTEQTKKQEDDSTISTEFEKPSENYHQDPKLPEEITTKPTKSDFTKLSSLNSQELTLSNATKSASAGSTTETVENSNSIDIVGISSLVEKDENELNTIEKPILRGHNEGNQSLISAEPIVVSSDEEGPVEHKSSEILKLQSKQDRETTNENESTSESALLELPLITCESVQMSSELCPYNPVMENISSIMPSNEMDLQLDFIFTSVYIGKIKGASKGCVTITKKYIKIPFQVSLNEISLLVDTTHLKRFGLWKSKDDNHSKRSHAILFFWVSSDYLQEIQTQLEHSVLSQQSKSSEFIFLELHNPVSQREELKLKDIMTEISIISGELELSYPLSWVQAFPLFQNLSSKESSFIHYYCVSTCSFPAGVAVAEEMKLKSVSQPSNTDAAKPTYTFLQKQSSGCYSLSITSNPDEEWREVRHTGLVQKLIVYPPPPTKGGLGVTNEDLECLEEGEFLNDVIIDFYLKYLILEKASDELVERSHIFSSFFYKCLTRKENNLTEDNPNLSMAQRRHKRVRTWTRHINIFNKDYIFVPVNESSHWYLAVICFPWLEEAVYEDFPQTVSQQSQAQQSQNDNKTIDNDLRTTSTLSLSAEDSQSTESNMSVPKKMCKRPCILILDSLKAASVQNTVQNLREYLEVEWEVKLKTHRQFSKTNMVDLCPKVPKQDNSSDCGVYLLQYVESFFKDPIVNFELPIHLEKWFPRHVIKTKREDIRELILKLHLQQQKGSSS
In kind it is functional.

In assay [2] the target is T2, Sentrin-specific protease 6 (Homo sapiens, UniProt Q9GZR1).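 Also: Luminescence-based dose-response confirmatory assay of SENP6 inhibition, following up an ultra-high-throughput screen.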
T2 sequence (Q9GZR1 whole entry): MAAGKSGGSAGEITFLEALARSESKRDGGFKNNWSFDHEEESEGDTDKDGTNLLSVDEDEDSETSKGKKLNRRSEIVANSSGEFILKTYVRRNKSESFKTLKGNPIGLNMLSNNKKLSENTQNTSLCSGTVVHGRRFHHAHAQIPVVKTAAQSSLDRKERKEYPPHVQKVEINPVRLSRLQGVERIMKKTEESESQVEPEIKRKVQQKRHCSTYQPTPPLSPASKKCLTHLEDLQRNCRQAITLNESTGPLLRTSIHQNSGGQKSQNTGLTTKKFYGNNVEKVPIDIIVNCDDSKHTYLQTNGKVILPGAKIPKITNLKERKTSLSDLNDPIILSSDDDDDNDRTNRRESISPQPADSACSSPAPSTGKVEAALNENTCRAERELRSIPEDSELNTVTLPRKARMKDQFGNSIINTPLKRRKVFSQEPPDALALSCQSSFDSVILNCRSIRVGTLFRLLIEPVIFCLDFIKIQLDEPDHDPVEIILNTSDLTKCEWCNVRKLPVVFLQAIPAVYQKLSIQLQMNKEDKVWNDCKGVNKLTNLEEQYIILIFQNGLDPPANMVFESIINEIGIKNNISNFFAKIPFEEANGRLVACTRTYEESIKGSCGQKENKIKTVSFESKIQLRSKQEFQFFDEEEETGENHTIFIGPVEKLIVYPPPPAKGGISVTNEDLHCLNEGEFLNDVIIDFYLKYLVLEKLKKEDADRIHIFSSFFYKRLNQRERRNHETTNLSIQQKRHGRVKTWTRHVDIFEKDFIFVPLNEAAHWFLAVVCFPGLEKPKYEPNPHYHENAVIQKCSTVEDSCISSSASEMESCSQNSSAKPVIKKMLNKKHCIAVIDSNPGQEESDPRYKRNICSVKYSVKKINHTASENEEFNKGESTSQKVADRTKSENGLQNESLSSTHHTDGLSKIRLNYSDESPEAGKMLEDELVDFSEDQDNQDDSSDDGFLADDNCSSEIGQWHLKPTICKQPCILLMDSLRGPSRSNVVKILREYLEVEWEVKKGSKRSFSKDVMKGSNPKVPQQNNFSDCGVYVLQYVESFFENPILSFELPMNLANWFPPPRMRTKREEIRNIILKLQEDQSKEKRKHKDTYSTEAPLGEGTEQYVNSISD
In kind it is functional.

The next assay concerns the target T3, Caspase-3 (Homo sapiens, UniProt P42574).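 Also: Dose-response selectivity test against caspase-3 for candidate inhibitors of sentrin-specific proteases (SENPs).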
T3 sequence (P42574 whole entry): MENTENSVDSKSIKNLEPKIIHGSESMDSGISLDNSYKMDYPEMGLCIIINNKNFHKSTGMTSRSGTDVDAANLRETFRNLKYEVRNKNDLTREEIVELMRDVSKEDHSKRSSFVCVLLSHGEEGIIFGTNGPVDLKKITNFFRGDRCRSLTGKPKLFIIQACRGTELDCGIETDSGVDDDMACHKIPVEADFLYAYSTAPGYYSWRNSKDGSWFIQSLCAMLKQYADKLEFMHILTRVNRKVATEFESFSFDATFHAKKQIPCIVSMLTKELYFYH
Format: functional.

The target of assay [3] is T4, Sentrin-specific protease 8 (Homo sapiens, UniProt Q96LD8).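 Also: luminescence read-out of SENP8 inhibition, dose-response confirmation following an ultra-high-throughput screen.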
T4 sequence (Q96LD8 whole entry): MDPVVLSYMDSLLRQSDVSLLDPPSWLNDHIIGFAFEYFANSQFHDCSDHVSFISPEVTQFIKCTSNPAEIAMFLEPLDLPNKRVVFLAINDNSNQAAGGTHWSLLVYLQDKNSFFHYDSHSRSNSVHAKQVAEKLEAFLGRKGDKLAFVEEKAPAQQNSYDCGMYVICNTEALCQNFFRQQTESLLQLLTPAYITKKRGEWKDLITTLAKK
Format: functional.

Assay [4] is described as follows: viability of HCT116 lacking mutant beta-catenin – cell-based, human colon tumor, dose response (AID 1045).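 Also: HCT116 colon tumor cells with beta catenin knocked out; cells exposed to compound for 60 hours.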 In kind it is functional.
A short description of assay [5]: viability of PTEN-deleted HCT116 cells – cell-based, HCT116 PTEN knockout, dose response (AID 1047).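 Also: HCT116 colon tumor cells with PTEN knocked out; cells exposed to compound for 60 hours before readout; potency for loss of cell viability measured by luminescence.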 In kind it is functional.
In the next assay the target is T5, Protein skinhead-1 (Caenorhabditis elegans, UniProt P34707).
T5 sequence (P34707 whole entry): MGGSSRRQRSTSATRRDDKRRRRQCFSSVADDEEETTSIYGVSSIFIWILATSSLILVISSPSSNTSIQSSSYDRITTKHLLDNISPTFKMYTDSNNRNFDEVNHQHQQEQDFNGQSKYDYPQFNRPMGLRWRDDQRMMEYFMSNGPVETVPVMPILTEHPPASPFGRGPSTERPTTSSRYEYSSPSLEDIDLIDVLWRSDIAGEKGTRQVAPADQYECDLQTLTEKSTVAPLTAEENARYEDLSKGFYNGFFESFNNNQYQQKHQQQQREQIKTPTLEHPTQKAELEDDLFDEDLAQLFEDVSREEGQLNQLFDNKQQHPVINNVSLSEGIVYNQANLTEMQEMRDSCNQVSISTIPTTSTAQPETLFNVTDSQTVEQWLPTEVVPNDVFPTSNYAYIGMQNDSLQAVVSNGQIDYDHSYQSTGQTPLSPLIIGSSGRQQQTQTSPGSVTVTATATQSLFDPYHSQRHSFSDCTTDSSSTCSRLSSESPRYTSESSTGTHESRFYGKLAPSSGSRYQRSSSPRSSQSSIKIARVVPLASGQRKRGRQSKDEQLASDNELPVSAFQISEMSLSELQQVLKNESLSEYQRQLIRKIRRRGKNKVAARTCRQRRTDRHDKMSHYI
In kind it is functional.

For a further assay, the system named is P388/ADR. In words: cells. In kind it is functional. The settings on record: Mus musculus.
The test system of a further assay is SN12K1. The assay is described as follows: cells. In kind it is functional. The settings on record: Homo sapiens.
In a further assay the test system is P388. In words: cells. In kind it is functional. The settings on record: Mus musculus.
Assay [6] can be described thus: toxicity toward HepG2 liver cells – cell-based, plate reader, cherry-pick, antagonist series, cytotoxicity control, dose response (AID 743416). Format: functional.
The nature of assay [7]: A549 cell cytotoxicity, dose response, cytotoxicity control, plate reader, cherry-pick, antagonist series (AID 743412). In kind it is functional, cell-based.
A short description of assay [8]: HIV-1 AD8 envelope cell-cell fusion blockers – cherry-pick, dose response (AID 652062).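 Also: luciferase signal from cell-cell fusion driven by HIV-1 clade B AD8 Env; potency is for inhibitors of fusion seen as a drop in luminescence.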 In kind it is functional, cell-based.
Assay [9] is described as follows: blockers of HIV-1 envelope-mediated cell-cell fusion – cherry-pick, dose response (AID 652057). Format: functional, cell-based.
Assay [10] is described as follows: viability of uninfected HEp-2 cells – cell-based, HTS, cytotoxicity control for RSV inhibitor project, dose response (AID 2410). Format: functional. The settings on record: human respiratory syncytial virus.

As a reminder, the IC50 is the concentration that inhibits the measured activity by half. The term EC50 denotes the midpoint of the concentration-response curve. In general, GI50 refers to the concentration that inhibits growth by half. The AC50 is the concentration at which the activity in the assay is half-maximal. Broadly, the CC50 is the concentration giving 50% cytotoxicity.

On to `O=C(Cn1cc(SCc2ccc(Cl)cc2)c2ccccc21)N1CCOCC1`, for which the IC50 in assay [1] was 6.14 µM (active); in assay [2], 10.3 µM (active); on Caspase-3, 27.1 µM (active); in assay [3] it was > 100 µM (inactive).

Regarding `Cc1cccc(OCc2cc(-c3ccccc3)no2)c1C`, the concentration for half-maximal inhibition (IC50) in [1] was 5.47 µM (active); in [2], 20.1 µM (active); at Caspase-3, 26.6 µM (active); in [3] it was 42.8 µM (active).

On to `O=C(COc1ccc(Cc2ccccc2)cc1)c1ccc(F)cc1`, for which the IC50 in assay [1] was 15.6 µM (active); in assay [2] it was 69.3 µM (active); on Caspase-3, 39.9 µM (active); in [3], > 100 µM (inactive).

As for `O=C(NC(=S)Nc1ccc(NC(=O)c2cccs2)cc1)c1cc2ccccc2o1`, the figures for the EC50 in assay [4] and in assay [5] were 22.6 µM (active) and 15.5 µM (active), respectively.

With `Cc1ccccc1-c1nnc(-c2ccccc2C)o1`, the IC50 at Protein skinhead-1 was > 100 µM (inactive); in assay [1], 12.1 µM (active); in assay [2], 6.65 µM (active); at Caspase-3 it was 20.5 µM (active); in assay [3], 95.5 µM (active).

For `CCCCCCCCCCCCCCCCOCC(COP(=O)([O-])OCC[N+](C)(C)C)OCCCCCCCCCCCCCCCC` (centres undefined), the GI50 in the assay with P388/ADR, in the assay on SN12K1 and with P388 was > 100 µM (inactive) in each case.

Take `CN(c1ccccc1)c1c(-c2ccccc2)c(=O)oc2c1ccc1occc12`: the figures for the GI50 in the assay on P388/ADR, in the assay with SN12K1 and in the assay with P388 were 74.6 µM (inactive), > 100 µM (inactive) and 37.8 µM (inactive), respectively.

In the case of `COc1cc2c(cc1Oc1c(Oc3c(O)c(OC)cc4c3C(CC(C)C)N(C)CC4)c(OC)cc3c1C(CC(C)C)N(C)CC3)C(CC(C)C)N(C)CC2` (centres undefined), the GI50 in the assay with P388/ADR was 0.706 µM (active); in the assay on SN12K1, 0.794 µM (active); in the assay on P388, 0.279 µM (active).

As to `CCN(CC)c1c(C)c(C(=O)OC)nn1-c1ccccc1`, the results for the GI50 in the assay with P388/ADR, with SN12K1 and in the assay with P388 were 31.6 µM (inactive), > 100 µM (inactive) and 34.8 µM (inactive), respectively.

`COc1ccccc1CN(C)C[C@@H]1OCc2cnnn2CCCC(=O)N([C@H](C)CO)C[C@H]1C`: the AC50 in [6] was 39.8 µM (active); in assay [7], > 52 µM (inactive).

Turning to `COc1cccc(S(=O)(=O)N(C)C[C@H]2Oc3cc(C4=CCCC4)ccc3S(=O)(=O)N([C@H](C)CO)C[C@H]2C)c1`, the figures for the concentration at half-maximal activity (AC50) in assay [8] and in assay [9] were 3.77 µM (active) and 3.31 µM (active), respectively.

As for `Cc1cccnc1Nc1nc(-c2ccc(O)cc2O)cs1`, the CC50 in assay [10] was 27 µM (active). Further, the half-maximal inhibitory concentration (IC50) was 3.79 µM (active) in assay [1], 8 µM (active) in assay [2], 41.8 µM (active) on Caspase-3 and 15.5 µM (active) in [3].

In the case of `C=C1CC(OC)(C(O)C(=O)N[C@H]2OCO[C@H]3C2O[C@H](C[C@@H](CO)OC)C(C)(C)C3OC)O[C@H](C)[C@@H]1C` (some centres undefined), the GI50 with P388/ADR, in the assay on SN12K1 and in the assay on P388 was < 0.00931 µM (active) in each case.

Consider `O=C1C(=O)c2cc([N+](=O)[O-])ccc2-c2ccc([N+](=O)[O-])cc21`, for which the values for the concentration for 50% growth inhibition (GI50) in the assay with P388/ADR, in the assay on SN12K1 and in the assay with P388 were 0.292 µM (active), 0.29 µM (active) and 0.201 µM (active), respectively.

Take `O=C1c2ccccc2-c2nnc(-c3ccc(F)cc3)cc21`: the IC50 was 1.9 µM (active) in assay [1], 2.5 µM (active) in assay [2], 2.59 µM (active) on Caspase-3 and 3.58 µM (active) in assay [3].

Regarding `COc1ccc2c(c1[N+](=O)[O-])CC[C@@H]1[C@@H]2CC[C@]2(C)C(=O)CC[C@@H]12`, the GI50 is 20.9 µM (inactive) in the assay with P388/ADR, > 25 µM (inactive) in the assay with SN12K1 and > 25 µM (inactive) in the assay on P388.

Take `Nc1c(C(=O)Nc2ccc(C3=NCCN3)cc2)cccc1C(=O)Nc1ccc(C2=NCCN2)cc1`: the GI50 in the assay on P388/ADR is > 100 µM (inactive); in the assay with SN12K1, > 100 µM (inactive); in the assay with P388, 12.5 µM (inactive).

For the compound `Oc1ncc(N(CCCl)CCCl)c(O)n1` [URACIL MUSTARD], the GI50 in the assay on P388/ADR was 1.77 µM (inactive); with SN12K1, 17.4 µM (inactive); in the assay with P388, 1.26 µM (inactive).
